In US20250313535A1, “ALPHA 4 BETA 7 INTEGRIN MODULATORS AND USES THEREOF” (DICE MOLECULES SV, INC., priority 2022, published 2025):
Like-named read-outs stand apart in the source and are kept apart here.

Experiments:
α4β1 integrin = α4β1 integrin (Homo sapiens (Human), UniProt P05556+P13612); assay: Integrin Adhesion Assay: Protocol 5 (VCAM-coated plate, RPMI-8866 cells with stable LOF mutation of the ITGB7 gene); type: cell-based
Description: (§1) Integrin Adhesion Assay Using Genetically Modified Cells Generating Stable Cell Lines with ITGB1 or ITGB7 Knockout (Protocol 4 and Protocol 5)
(§2) To obtain subclones of the RPMI-8866 cell line (Sigma-Aldrich, St. Louis, MO) that were individually deficient in either integrin β1 or integrin β 7, CRISPR/Cas9 technology was employed (PMID: 30108345). Specifically, a Neon™ Transfection System System 10 μL Kit and the Neon™ Transfection device (both from ThermoFisher Scientific) were used.
(§3) The protocol was performed following the manufacturer instructions, described in https://www.thermofisher.com/document-connect/document-connect.html?url=https % 3A%2F%2F assets.thermofisher.com%2FTFS-Assets%2FLSG%2Fmanuals%2FMAN0017066_TrueCut Cas9_Protein_v2_UG.pdf, which is incorporated by reference herein in its entirety.
(§4) RPMI-8866 cells were transferred to a flask the day before transfection, at a confluence of 5×10^5 cells/mL. The cells were washed with PBS and resuspended in buffer R (Neon™ Transfection System, Invitrogen) to 2×10^5 cells/10 uL for each reaction. The TrueCut™ HiFi Cas9 Protein (1250 ng per reaction) was mixed with TrueGuide™ sgRNA (7.5 pmoles each/pool of 3 sequences, table 1) (ThermoFisher Scientific). This mix was combined with the RPMI-8866 cells and electroporated on the Neon system at 1700V/20 ms/1 pulse. Transfected cells were allowed to recover in 500 μL pre-warmed cRMPI media (RPMI-1640 media with 10% FBS, 100 U/ml Penicillin-Streptomycin) at 37° C., 5% CO2 for 24 hours. At that time, an extra 500 μL of pre-warmed cRMPI media was added, and cells were incubated for another 24 hours.
(§5) For flow cytometry analysis, 100 μL of the transfected cells were collected and stained with anti-itga4 (Clone: 9F10, PE, BD Pharmingen™), anti-itgb 1 (Clone: (TS2/16), Super Bright 436, eBioscience), anti-itgb7 (Clone: FIB504, Brilliant Violet 650, BD Pharmingen™) and viability dye (LIVE/DEAD™ Fixable Green Dead Cell Stain, Invitrogen™). An Attune NxT Flow Cytometer was used to analyze the CRISPR-transfected cells. The flow cytometry results were analyzed using FlowJo™ v10.8.1 Software (BD Life Sciences). Fluorescence minus one (FMO) controls were used to select appropriate gates for data analysis.
(§6) To generate an individual clones of cells deficient in either ITGB7 or ITGB1 by limiting dilution assay, the transfected cells were resuspended at 5 cells/mL and seeded in 384 well plates. Outgrowth of clones was monitored using a microscope, and 24 clones were transferred for expansion. Expression of either integrin was verified by flow cytometry in each of the clones. One clone of each integrin b7 or the integrin b1 knockout was chosen, expanded and aliquots were frozen in vapor phase liquid nitrogen.
Integrin Adhesion Assay: Protocol 5
VCAM (R&D Systems, 0.1 ug) was diluted in 50 μL PBS, added to each well of an opaque ELISA plate (Thermo), and incubated overnight at 4° C. Coated plates were washed once with PBS and then blocked with 200 μL of assay buffer (10 mM HEPES, 150 mM NaCl, 1 mM MnCl2, 0.1 mM CaCl2), 1% BSA) for 1 hour at 37° C. and 5% CO2. After incubation, buffer was aspirated from the plates and 50 μL of fresh assay buffer was added. Compounds were added by compounds dispenser (Tecan) and DMSO concentration was normalized to 1% across each plate. 50 μL of RPMI-8866 cells with a stable LOF mutation of the ITGB7 gene (2×10^6 per mL) were added to each well and the plates were incubated for 1 hour at 37° C. and 5% CO2. After incubation, plates were allowed to cool to RT for 10 minutes before being washed four times in assay buffer by an automated plate washer (BioTek). After washing, 100 μL of a 1:1 mixture of assay buffer and CellTiter GLO 2.0 reagent (Promega) were added to each well. Plates were mixed for 2 minutes at 1000 rpm and then allowed to incubate an additional 10 minutes before reading out luminescence on a Tecan Spark plate reader. […]

α4β7 integrin = α4β7 integrin (Homo sapiens (Human), UniProt P13612+P26010); assay: Integrin Adhesion Assay: Protocol 4 (MAdCAM-coated plate, RPMI-8866 cells with stable LOF mutation of the ITGB1 gene); type: cell-based
α4β7 integrin, sequence (P13612 34-1032): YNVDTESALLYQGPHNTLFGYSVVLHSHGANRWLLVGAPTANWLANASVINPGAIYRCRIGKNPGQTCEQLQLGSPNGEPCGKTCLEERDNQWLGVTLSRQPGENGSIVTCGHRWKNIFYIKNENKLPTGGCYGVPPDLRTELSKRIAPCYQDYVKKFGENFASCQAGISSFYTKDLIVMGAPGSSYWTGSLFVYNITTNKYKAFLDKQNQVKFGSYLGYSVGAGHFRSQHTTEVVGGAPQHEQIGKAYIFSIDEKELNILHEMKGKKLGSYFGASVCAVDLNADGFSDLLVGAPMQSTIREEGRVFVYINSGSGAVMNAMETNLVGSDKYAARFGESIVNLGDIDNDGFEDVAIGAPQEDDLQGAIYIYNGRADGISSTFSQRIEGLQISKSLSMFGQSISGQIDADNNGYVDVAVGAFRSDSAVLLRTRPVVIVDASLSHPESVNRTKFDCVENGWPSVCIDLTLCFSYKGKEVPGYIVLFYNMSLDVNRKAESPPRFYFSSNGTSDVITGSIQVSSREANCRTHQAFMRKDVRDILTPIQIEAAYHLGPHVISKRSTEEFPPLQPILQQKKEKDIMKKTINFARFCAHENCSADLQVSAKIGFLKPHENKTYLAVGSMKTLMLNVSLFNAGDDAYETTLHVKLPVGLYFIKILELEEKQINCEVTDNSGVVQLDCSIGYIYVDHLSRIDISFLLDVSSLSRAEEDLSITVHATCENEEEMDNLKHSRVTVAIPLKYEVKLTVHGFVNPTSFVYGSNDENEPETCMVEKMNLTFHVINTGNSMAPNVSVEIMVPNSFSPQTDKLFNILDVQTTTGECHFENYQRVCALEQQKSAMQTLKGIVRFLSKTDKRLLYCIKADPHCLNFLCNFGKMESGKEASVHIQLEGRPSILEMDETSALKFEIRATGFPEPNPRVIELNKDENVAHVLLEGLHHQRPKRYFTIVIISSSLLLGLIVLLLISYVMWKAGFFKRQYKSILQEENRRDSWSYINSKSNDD
α4β7 integrin, sequence (P26010 20-798): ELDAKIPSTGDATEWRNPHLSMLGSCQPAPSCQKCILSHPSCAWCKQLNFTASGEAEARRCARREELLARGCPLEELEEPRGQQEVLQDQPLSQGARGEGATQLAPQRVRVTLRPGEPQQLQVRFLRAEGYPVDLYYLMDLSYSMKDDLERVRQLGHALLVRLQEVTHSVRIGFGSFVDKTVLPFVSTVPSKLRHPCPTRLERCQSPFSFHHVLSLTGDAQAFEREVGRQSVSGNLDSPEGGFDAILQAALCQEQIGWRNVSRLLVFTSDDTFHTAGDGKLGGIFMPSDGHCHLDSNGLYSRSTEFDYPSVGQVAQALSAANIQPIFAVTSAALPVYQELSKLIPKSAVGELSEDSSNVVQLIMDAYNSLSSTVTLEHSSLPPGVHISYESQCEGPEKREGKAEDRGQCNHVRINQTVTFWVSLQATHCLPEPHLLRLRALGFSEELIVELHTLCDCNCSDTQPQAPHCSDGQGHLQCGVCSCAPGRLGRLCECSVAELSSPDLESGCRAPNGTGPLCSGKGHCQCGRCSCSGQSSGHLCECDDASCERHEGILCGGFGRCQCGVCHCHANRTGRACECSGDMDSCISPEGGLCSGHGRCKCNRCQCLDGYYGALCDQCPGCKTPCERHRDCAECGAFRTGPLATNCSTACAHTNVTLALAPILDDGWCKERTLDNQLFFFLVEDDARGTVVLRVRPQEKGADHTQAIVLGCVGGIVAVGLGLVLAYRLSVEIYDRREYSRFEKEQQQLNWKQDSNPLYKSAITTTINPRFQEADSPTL
Description: as §1, §2, §3, §4, §5, §6
Integrin Adhesion Assay: Protocol 4
MAdCAM (R&D Systems, 0.1 ug) was diluted in 50 μL PBS, added to each well of an opaque ELISA plate (Thermo), and incubated overnight at 4° C. Coated plates were washed once with PBS and then blocked with 200 μL of assay buffer (10 mM HEPES, 150 mM NaCl, 1 mM MnCl2, 0.1 mM CaCl2), 1% BSA) for 1 hour at 37° C. and 5% CO2. After incubation, buffer was aspirated from the plates and 50 μL of fresh assay buffer was added. Compounds were added using a compounds dispenser (Tecan), and DMSO concentration was normalized to 1% across each plate. 50 μL of RPMI-8866 cells with a stable loss of function (LOF) mutation of the ITGB1 gene (2×10^6 per mL) were added to each well and the plates were incubated for 1 hour at 37° C. at a CO2 concentration of 5%. After incubation, plates were allowed to cool to RT for 10 minutes before being washed four times in assay buffer by an automated plate washer (BioTek). After washing, 100 μL of a 1:1 mixture of assay buffer and CellTiter GLO 2.0 reagent (Promega) were added to each well. Plates were mixed for 2 minutes at 1000 rpm and then allowed to incubate an additional 10 minutes before reading out luminescence on a Tecan Spark plate reader. […]

[1] = RPMI-8866 cells with stable LOF mutation of the ITGB7 gene, read-out: Mean IC50 α4β1 KO^b
[2] = RPMI-8866 cells with stable LOF mutation of the ITGB1 gene, read-out: Mean IC50 α4β7 KO^a
[3] = Protocol 5, RPMI-8866 cells with LOF mutation of ITGB7, VCAM, read-out: Mean IC50 α4β1 KO
[4] = Protocol 4, RPMI-8866 cells with LOF mutation of ITGB1, MAdCAM, read-out: Mean IC50 α4β7 KO

α4β1 integrin, sequence (P13612 34-1032): as the sequence (P13612 34-1032) above
α4β1 integrin, sequence (P05556 21-798): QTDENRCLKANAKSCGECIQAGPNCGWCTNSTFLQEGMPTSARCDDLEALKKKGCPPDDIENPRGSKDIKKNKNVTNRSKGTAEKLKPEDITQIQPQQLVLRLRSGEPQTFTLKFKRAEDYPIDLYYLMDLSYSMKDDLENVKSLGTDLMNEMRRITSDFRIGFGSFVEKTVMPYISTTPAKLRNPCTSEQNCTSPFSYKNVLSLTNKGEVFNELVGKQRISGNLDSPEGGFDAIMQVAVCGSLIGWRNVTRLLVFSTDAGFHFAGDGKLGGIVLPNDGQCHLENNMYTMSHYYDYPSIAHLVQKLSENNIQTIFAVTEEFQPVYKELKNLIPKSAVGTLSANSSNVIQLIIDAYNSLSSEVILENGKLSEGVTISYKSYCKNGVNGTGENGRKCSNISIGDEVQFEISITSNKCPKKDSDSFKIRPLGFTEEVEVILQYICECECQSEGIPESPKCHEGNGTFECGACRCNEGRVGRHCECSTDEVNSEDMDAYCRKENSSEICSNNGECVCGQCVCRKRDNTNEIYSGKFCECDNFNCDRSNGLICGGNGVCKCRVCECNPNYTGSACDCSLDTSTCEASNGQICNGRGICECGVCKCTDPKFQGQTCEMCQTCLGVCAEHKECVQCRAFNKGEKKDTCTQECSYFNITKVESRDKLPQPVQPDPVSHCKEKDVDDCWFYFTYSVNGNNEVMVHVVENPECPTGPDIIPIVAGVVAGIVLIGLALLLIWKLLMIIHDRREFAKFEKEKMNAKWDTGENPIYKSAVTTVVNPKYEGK

SMILES | IC50 (α4β1 integrin; [1]) | IC50 (α4β7 integrin; [2]) | IC50 (α4β1 integrin; [3]) | IC50 (α4β7 integrin; [4])
COc1ccc(CN2CCCCC2)cc1-c1cccc2c(C[C@H](NC(=O)C3(C(F)(F)F)CCN(CC(F)(F)F)CC3)C(=O)O)cccc12 [Compound 575] | 100 to 1000 nM | < 10 nM |  | 
COc1cc(CN2CCC(F)(F)C2)cc(OC)c1-c1cccc2c(C[C@H](NC(=O)C3(C(F)(F)F)CCN(CC(F)(F)F)CC3)C(=O)O)cccc12 [Compound 797] |  |  | > 1000 nM | < 10 nM
COc1cccc(CN2CCC(C)(C)CC2)c1-c1cccc2c(C[C@H](NC(=O)C3(C(F)(F)F)CCN(CC(F)(F)F)CC3)C(=O)O)cccc12 [Compound 829] |  |  | > 1000 nM | 10 to 100 nM
COC(=O)[C@H](Cc1cccc2c(-c3nc(CN4CCCCC4)cc4ccncc34)cccc12)NC(=O)C1(C(F)(F)F)CCN(CC(F)(F)F)CC1 [Compound 994] |  |  | > 1000 nM | 10 to 100 nM
COc1cccc(CN2CCCCC2)c1-c1cccc2c(C[C@H](NC(=O)c3c(F)ccc(F)c3C)C(=O)O)cccc12 [Compound 543] | > 1000 nM | < 10 nM |  | 
COc1ccc(CN2CCC(F)(F)CC2)c(OC)c1-c1cccc2c(C[C@H](NC(=O)c3c(C)ccnc3F)C(=O)O)cccc12 [Compound 606] | > 1000 nM | 10 to 100 nM |  | 
COc1cc2c(cc1-c1cccc3c(C[C@H](NC(=O)c4c(C)cccc4F)C(=O)O)cccc13)CN(CC(F)F)CC2 [Compound 1006] |  |  | 100 to 1000 nM | 10 to 100 nM
O=C(O)[C@H](Cc1cccc2c(-c3ncc(CCN4CCCCC4)c4ccccc34)cccc12)NC(=O)C1(C(F)(F)F)CCN(CC(F)(F)F)CC1 [Compound 962] |  |  | > 1000 nM | < 10 nM
COc1ccc2cccnc2c1-c1cccc2c(C[C@H](NC(=O)c3c(F)cccc3F)C(=O)O)cccc12 [Compound 501] | > 1000 nM | 100 to 1000 nM |  | 
COc1cc(CCN(C)C)cc(OC)c1-c1cccc2c(C[C@H](NC(=O)C3(C(F)(F)F)CCN(CC(F)(F)F)CC3)C(=O)O)cccc12 [Compound 531] | 100 to 1000 nM | < 10 nM |  | 
COc1ccc(CN2CCC(c3ccncc3)CC2)c(OC)c1-c1cccc2c(C[C@H](NC(=O)C3(C(F)(F)F)CCN(CC(F)(F)F)CC3)C(=O)O)cccc12 [Compound 808] |  |  | 100 to 1000 nM | < 10 nM
CCOCCN1CCC(C(=O)N[C@@H](Cc2cccc3c(-c4c(C(F)(F)F)c5ccccc5n(C)c4=O)cccc23)C(=O)O)(C(F)(F)F)CC1 [Compound 503] | 100 to 1000 nM | 10 to 100 nM |  | 
COc1ccc(CN2CCC[C@H](F)C2)c(OC)c1-c1cccc2c(C[C@H](NC(=O)C3(C(F)(F)F)CCN(CC(F)(F)F)CC3)C(=O)O)cccc12 [Compound 842] |  |  | 100 to 1000 nM | < 10 nM
C[C@@H]1CN(Cc2cnc(-c3cccc4c(C[C@H](NC(=O)C5(C(F)(F)F)CCN(CC(F)(F)F)CC5)C(=O)O)cccc34)c3ccccc23)C[C@H](C)O1 [Compound 863] |  |  | > 1000 nM | 10 to 100 nM
COc1ccc(CN(C)CC(F)F)c(OC)c1-c1cccc2c(C[C@H](NC(=O)c3c(C)cccc3F)C(=O)O)cccc12 [Compound 637] | 100 to 1000 nM | < 10 nM |  | 
